Here are results for 16 compounds from patent publication US9499495B2, “Quinazolines and azaquinazolines as dual inhibitors of RAS/RAF/MEK/ERK and PI3K/AKT/PTEN/mTOR pathways” (Asana Biosciences, LLC, priority 2013, dated 2016).

Structures are written as SMILES.

Assay [1] concerns pERK in RKO cells. As to the kind of experiment: In Cell Western (ICW) assay, pERK in RKO cells. It is filed as cell-based. Particulars: Homo sapiens, 3 h treatment. In outline: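 RKO or A375 cells were exposed to compounds for 3 h at 37 °C, then fixed and stained in-cell with antibodies to pERK1/2 (T202/Y204), pS6RP or pAKT T308, followed by a Eu-labelled secondary. Time-resolved fluorescence (340/615 nm) was normalized to Hoechst, and IC50 values were fitted sigmoidally against DMSO as 0% inhibition.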

Assay [2] concerns the target T1, mTOR kinase (Homo sapiens, UniProt P42345).
T1 construct: purchased Millipore, US
As to the kind of experiment: mTOR kinase TR-FRET assay. Type of assay: biochemical. In outline: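 TR-FRET with ULight-p70 S6K (Thr 389) peptide (50 nM) and 20 μM ATP in 50 mM HEPES pH 7.5, 1 mM EGTA, 3 mM MnCl2; compound pre-incubated with enzyme before substrate addition, reaction at rt, EDTA-stopped. Eu anti-phospho antibody read 665/615 nm; IC50 from sigmoidal dose-response fit.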
On the technique in general: Time-resolved FRET reads energy transfer from a long-lived donor to a nearby acceptor.

In assay [3] the test system is pS6RP in RKO cells. As to the kind of experiment: In Cell Western (ICW) assay, pS6RP in RKO cells. Type of assay: cell-based. Conditions: Homo sapiens, 3 h treatment. The procedure: Cell lines A375, A2058 and RKO obtained from the ATCC as provided above, were grown, and after attaining ˜80% confluency were trypsinized, centrifuged and resuspended in fresh media. The cells were seeded at the specified density (20,000 to 50,000) in a 96-well format black-well clear bottom plate (Corning) and incubated overnight at 37° C. in a 5% CO2 incubator. The next day, compound dilutions of test compounds were prepared in 100% DMSO followed by dilutions in respective media. Treatment of test compounds was performed for 3 h at 37° C. in 5% CO2 incubator. Following 3 h drug treatment, the conditional media was discarded and the cells were washed once with cPBS (PBS containing 0.1% magnesium chloride hexahydrate and 0.1% anhydrous calcium chloride) and fixed with 4% paraformaldehyde in cPBS for 1 h at rt. After fixing, the cells were given three washes using cPBST (cPBS containing 0.1% Triton™ X-100 reagent) and then blocked using blocking solution (5% skimmed milk powder or 5% BSA prepared in cPBST) for 2 h at rt with shaking at 300 rpm. The cells were again washed thrice with cPBST and incubated with primary antibody phospho-p44/42 MAPK(Erk1/2)(Thr202/204) antibody (Cell Signaling, Catalog # 9101L), phospho S6 ribosomal protein (Cell Signaling, Catalog #4858L), phospho AKT (Thr 308) (Cell Signaling, Catalog #9275) or phospho AKT (Ser 473) (Cell Signaling, Catalog #4060L) in specified dilutions (1:500-1:2500), prepared in respective blocking solutions, in a racker overnight at 4° C. The next day, the cells were washed with 1× Delfia® wash buffer (4×1 wash) and incubated with secondary antibody (Delfia®-Eu-N1 labeled anti-rabbit antibody; PerkinElmer, Catalog #AD0105; dilutions: 1:2000 to 1:6000 in Delfia® assay buffer (PerkinElmer, Catalog #1244-111)) for 2 h at rt in the dark at 300 rpm. The cells were then given four washes with 1× Delfia® wash buffer and incubated with Wallac Delfia® Enhancement solution (100 μL; PerkinElmer, Catalog #1244-105) for 20 min at rt in the dark at 300 rpm. The fluorescence emission was then read at 615 nm with an excitation wavelength of 340 nm using a Victor V5 Fluorometer (Perkin Elmer, US). The cells were then washed once with 1×cPBS and incubated with 100 μL of 0.5 mg/mL of Hoechst 33258 dye prepared in cPBS and read at 460 nm with 355 nm excitation, thereby evaluating the correction factor.
The % inhibition for the test compounds of formula (I) (new chemical entities (NCEs)) was calculated keeping DMSO control as 0% and the IC50 values were determined using sigmoidal dose response curve fit in GraphPad Prism® v5 software.

In assay [4] the test system is RKO cells. As to the kind of experiment: XTT assay for cell viability, RKO cells. Type of assay: cell-based. Conditions: Homo sapiens, 72 h. The method, boiled down:
(§1)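 RKO and A375 cells seeded at 1000-2000/well overnight, then exposed to compound for 72 h at 37° C., 5% CO2. XTT (1 mg/ml)/PMS (25 μM) added for 2-3 h; absorbance at 450 nm. Growth relative to DMSO control (100%); GI50 from sigmoidal dose-response fit.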
Background: Tetrazolium dyes change colour on reduction, which living cells bring about.

Assay [5] has as its system A375 cells. As to the kind of experiment: XTT assay for cell viability, A375 cells. Particulars: Homo sapiens, A-375, 72 h. Type of assay: cell-based. In outline:
as §1

T1 sequence (P42345 1362-2549 limits assumed): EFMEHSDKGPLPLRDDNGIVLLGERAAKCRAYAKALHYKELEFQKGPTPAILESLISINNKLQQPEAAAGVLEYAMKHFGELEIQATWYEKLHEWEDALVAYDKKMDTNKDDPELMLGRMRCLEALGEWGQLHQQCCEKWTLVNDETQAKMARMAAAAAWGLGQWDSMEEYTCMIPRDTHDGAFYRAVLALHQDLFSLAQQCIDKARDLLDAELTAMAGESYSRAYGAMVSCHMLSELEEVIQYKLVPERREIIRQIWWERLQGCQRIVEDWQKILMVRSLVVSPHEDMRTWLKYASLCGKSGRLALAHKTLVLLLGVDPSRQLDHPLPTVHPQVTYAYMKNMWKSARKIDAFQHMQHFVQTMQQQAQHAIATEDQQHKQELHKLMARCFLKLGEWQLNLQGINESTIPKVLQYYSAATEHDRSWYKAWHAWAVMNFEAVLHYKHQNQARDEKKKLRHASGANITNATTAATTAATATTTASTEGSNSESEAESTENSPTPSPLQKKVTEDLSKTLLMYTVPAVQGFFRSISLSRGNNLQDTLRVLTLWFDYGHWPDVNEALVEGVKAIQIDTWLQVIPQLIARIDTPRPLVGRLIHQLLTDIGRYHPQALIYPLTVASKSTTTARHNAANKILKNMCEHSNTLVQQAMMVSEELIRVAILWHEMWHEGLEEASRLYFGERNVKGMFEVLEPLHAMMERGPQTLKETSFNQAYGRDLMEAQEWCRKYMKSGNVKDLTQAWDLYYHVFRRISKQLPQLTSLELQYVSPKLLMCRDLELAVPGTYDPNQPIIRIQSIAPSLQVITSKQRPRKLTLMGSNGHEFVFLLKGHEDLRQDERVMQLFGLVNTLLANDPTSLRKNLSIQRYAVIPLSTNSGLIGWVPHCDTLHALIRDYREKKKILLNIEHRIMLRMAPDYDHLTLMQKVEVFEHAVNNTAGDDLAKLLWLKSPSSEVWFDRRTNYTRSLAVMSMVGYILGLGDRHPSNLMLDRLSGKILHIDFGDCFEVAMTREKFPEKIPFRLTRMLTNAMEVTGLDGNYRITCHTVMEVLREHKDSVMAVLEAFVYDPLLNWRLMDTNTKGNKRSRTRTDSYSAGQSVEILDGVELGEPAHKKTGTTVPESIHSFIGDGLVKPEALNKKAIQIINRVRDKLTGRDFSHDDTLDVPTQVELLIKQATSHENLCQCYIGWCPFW

Broadly, the IC50 is the concentration that inhibits the measured activity by half. A higher IC50 goes with a need for much substance. Regarding `O=S(=O)(CCCF)Nc1cccc(-c2ccc3nc(-c4ccc(NCCO)nc4)nc(N4CCOCC4)c3n2)c1F` [Example 99, 3-fluoro-N-(2-fluoro-3-(2-(6-((2-hydroxyethyl)amino)pyridin-3-yl)-4-morpholinopyrido[3,2-d]pyrimidin-6-yl)phenyl)propane-1-sulfonamide], the IC50 in assay [1] lay within 1 to 100 nM; in assay [2] it was 1 to 100 nM; in assay [3] it was 100 to 1000 nM; in assay [4], 100 to 1000 nM; in assay [5], 100 to 1000 nM.
Take `CCCS(=O)(=O)Nc1cccc(-c2ccc3nc(-c4ccc(N)nc4)nc(N4CCOCC4)c3n2)c1F` [Example 86, N-(3-(2-(6-aminopyridin-3-yl)-4-morpholinopyrido[3,2-d]pyrimidin-6-yl)-2-fluorophenyl)propane-1-sulfonamide]: the IC50 in assay [2] lay in the range of 1 to 100 nM; in assay [4], 100 to 1000 nM; in assay [5], 100 to 1000 nM.
In the case of `Cc1cc(-c2nc(N3CCOCC3)c3nc(-c4cccc(NS(=O)(=O)CCCF)c4F)ccc3n2)cnc1N` [Example 90, N-(3-(2-(6-amino-5-methylpyridin-3-yl)-4-morpholinopyrido[3,2-d]pyrimidin-6-yl)-2-fluorophenyl)-3-fluoropropane-1-sulfonamide], the IC50 in assay [2] and in assay [5] was 100 to 1000 nM each time.
For the compound `Nc1cc(F)c(-c2nc(N3CCOCC3)c3nc(-c4cccc(NS(=O)(=O)CCCF)c4F)ccc3n2)cn1` [Example 102, N-(3-(2-(6-amino-4-fluoropyridin-3-yl)-4-morpholinopyrido[3,2-d]pyrimidin-6-yl)-2-fluorophenyl)-3-fluoropropane-1-sulfonamide], the half-maximal inhibitory concentration (IC50) in assay [1] was in the range of 100 to 1000 nM; in assay [2] it was 1 to 100 nM; in assay [3], 100 to 1000 nM; in assay [4], 100 to 1000 nM; in assay [5] it was 100 to 1000 nM.
`COc1cc(-c2cccc(NS(=O)(=O)CCCF)c2F)cc2c(N3CCOC[C@H]3C)nc(-c3cnc(N)nc3)nc12` [Example 43, (R)-N-(3-(2-(2-aminopyrimidin-5-yl)-8-methoxy-4-(3-methylmorpholino)quinazolin-6-yl)-2-fluorophenyl)-3-fluoropropane-1-sulfonamide]: the IC50 in assay [1] is 1 to 100 nM; in assay [2], 1 to 100 nM; in assay [3], 100 to 1000 nM; in assay [4], 100 to 1000 nM; in assay [5], 1 to 100 nM.
Take `CCCS(=O)(=O)Nc1cccc(-c2ccc3nc(-c4cnc(N)nc4)nc(N4CCOCC4)c3n2)c1F` [Example 7, N-(3-(2-(2-aminopyrimidin-5-yl)-4-morpholinopyrido[3,2-d]pyrimidin-6-yl)-2-fluorophenyl)propane-1-sulfonamide]: the half-inhibitory concentration (IC50) in assay [2], in assay [4] and in assay [5] was 100 to 1000 nM throughout.
As for `CNC(=O)Nc1ccc(-c2nc(N3CCOCC3)c3cc(-c4cccc(NS(=O)(=O)CCCF)c4F)cc(OC)c3n2)cn1` [Example 39, 3-fluoro-N-(2-fluoro-3-(8-methoxy-2-(6-(3-methylureido)pyridin-3-yl)-4-morpholinoquinazolin-6-yl)phenyl)propane-1-sulfonamide], the IC50 in assay [2] and in assay [5] was 1 to 100 nM each time.
For `C[C@H]1COCCN1c1nc(-c2cnc(N)cc2F)nc2ccc(-c3cccc(NS(=O)(=O)CCCF)c3F)nc12` [Example 129, (S)-N-(3-(2-(6-amino-4-fluoropyridin-3-yl)-4-(3-methylmorpholino)pyrido[3,2-d]pyrimidin-6-yl)-2-fIuorophenyl)-3-fluoropropane-1-sulfonamide], the figures for the IC50 in assay [2] and in assay [5] were 1 to 100 nM and 100 to 1000 nM, respectively.
Turning to `COc1cc2nc(-c3cnc(N)nc3)nc(N3CCOCC3)c2cc1-c1cccc(NS(=O)(=O)CCCF)c1F` [Example 11, N-(3-(2-(2-aminopyrimidin-5-yl)-7-methoxy-4-morpholinoquinazolin-6-yl)-2-fluorophenyl)-3-fluoropropane-1-sulfonamide], the IC50 in assay [2] was in the range of 1 to 100 nM; in assay [3], 100 to 1000 nM; in assay [4] it was 100 to 1000 nM; in assay [5], 100 to 1000 nM.
With `O=S(=O)(CCCF)Nc1cccc(-c2ccc3nc(-c4ccc(NCCCO)nc4)nc(N4CCOCC4)c3n2)c1F` [Example 111, 3-fluoro-N-(2-fluoro-3-(2-(6-((3-hydroxypropyl)amino)pyridin-3-yl)-4-morpholinopyrido[3,2-d]pyrimidin-6-yl)phenyl)propane-1-sulfonamide], the IC50 in assay [2] lay within 1 to 100 nM; in assay [5], 100 to 1000 nM.
In the case of `Nc1ccc(-c2nc(N3CCOCC3)c3nc(-c4cccc(NS(=O)(=O)c5c(F)cccc5F)c4F)ccc3n2)cn1` [Example 95, N-(3-(2-(6-aminopyridin-3-yl)-4-morpholinopyrido[3,2-d]pyrimidin-6-yl)-2-fluorophenyl)-2,6-difluorobenzenesulfonamide], the IC50 is 1 to 100 nM in assay [2], 1000 to 10000 nM in assay [4] and 100 to 1000 nM in assay [5].
Regarding `C[C@@H]1COCCN1c1nc(-c2cnc(N)nc2)nc2ccc(-c3cccc(NS(=O)(=O)CCCF)c3F)nc12` [Example 97, (R)-N-(3-(2-(2-aminopyrimidin-5-yl)-4-(3-methylmorpholino)pyrido[3,2-d]pyrimidin-6-yl)-2-fluorophenyl)-3-fluoropropane-1-sulfonamide], the IC50 in assay [2], in assay [3], in assay [4] and in assay [5] was 100 to 1000 nM throughout.
Take `COc1cc(-c2cccc(NS(=O)(=O)CCCF)c2F)cc2c(N3CCOC[C@H]3C)nc(-c3cnc(N)cc3F)nc12` [Example 135, (R)-N-(3-(2-(6-amino-4-fluoropyridin-3-yl)-8-methoxy-4-(3-methylmorpholino)quinazolin-6-yl)-2-fluorophenyl)-3-fluoropropane-1-sulfonamide]: the IC50 in assay [1] was in the range of 1 to 100 nM; in assay [2] it was 1 to 100 nM; in assay [3], 100 to 1000 nM; in assay [4] it was 100 to 1000 nM; in assay [5], 1 to 100 nM.
On to `Nc1ncc(-c2nc(N3CCOCC3)c3cc(-c4cccc(NS(=O)(=O)CCCF)c4F)cc(N4CCOCC4)c3n2)cn1` [Example 69, N-(3-(2-(2-aminopyrimidin-5-yl)-4,8-dimorpholinoquinazolin-6-yl)-2-fluorophenyl)-3-fluoropropane-1-sulfonamide], for which the IC50 in assay [2] and in assay [5] was 1 to 100 nM each time.
On to `Cc1cc(-c2cccc(NS(=O)(=O)CCCF)c2F)cc2c(N3CCOCC3)nc(-c3cnc(N)nc3)nc12` [Example 116, N-(3-(2-(2-aminopyrimidin-5-yl)-8-methyl-4-morpholinoquinazolin-6-yl)-2-fluorophenyl)-3-fluoropropane-1-sulfonamide], for which the results for the IC50 in assay [2] and in assay [5] were 100 to 1000 nM and 1 to 100 nM, respectively.
For `Nc1cc(C(F)(F)F)c(-c2nc(N3CCOCC3)c3nc(-c4cccc(NS(=O)(=O)c5c(F)cccc5F)c4F)ccc3n2)cn1` [Example 106, N-(3-(2-(6-amino-4-(trifluoromethyl)pyridin-3-yl)-4-morpholinopyrido[3,2-d]pyrimidin-6-yl)-2-fluorophenyl)-2,6-difluorobenzenesulfonamide], in that order: 1 to 100 nM and 100 to 1000 nM.
